Experimental data taken from US11708366B2, “Heteroaryl substituted spiropiperidinyl derivatives and pharmaceutical uses thereof” (Novartis AG, priority 2020, dated 2023).

Tests used:
[1] = target: T1, LTC4S (Homo sapiens (Human), UniProt Q16873); test: Human whole blood HTRF assay (LTC4 release after calcium ionophore A23187); assay type: cell-based; conditions: calcium ionophore A23187 stimulation, LTC4 by HTRF
[2] = target: T1, LTC4S; test: Human LTC4S enzymatic assay (HTRF detection of LTC4-Me); assay type: biochemical
Procedure: A. Human LTC4S Enzymatic Assay:
LTC4 synthase catalyzes the conversion of Leukotriene A4 (LTA4) to Leukotriene C4 (LTC4) in the presence of reduced glutathione (GSH) as a co-substrate. For compound testing, compounds are delivered as 10 mM stock solutions in 90% DMSO in matrix tubes. From this, a 1:3 dilution dose response series is prepared with a starting concentration of 30 μM to 0.1 nM. For the enzymatic assay 97.5 nL of compound/DMSO solution is transferred to each well and 5 μL enzyme solution (assay buffer: 50 mM bis-tris propane pH 7.3, 250 mM NaCl, 10 mM MgCl2, 0.001% MGN3) is added to the wells. […] The enzyme compound mixture is incubated at room temperature for 15 minutes prior to the addition of 5 μL substrate solution. […] A final substrate concentration of 400 μM GSH and 5 μM LTA4-Me is chosen.
The LTA4-Me is obtained commercially in 2% triethylamine/hexane solvent. As this solvent is incompatible with the HTRF assay it has to be exchanged with DMSO according to following procedure: add 50 μL of 100% DMSO to 50 μL LTA4-Me (3 mM) in a 2 mL Eppendorf tube and mix gently by inverting the tube. The triethylamine/hexane is evaporated under a constant argon flux at room temperature. The DMSO-LTA4-Me (3 mM) is aliquoted and stored at −20° C. for not longer than 4 weeks, as it is not stable in DMSO due to its oxidizing properties.
Upon addition of the substrate, the plate is immediately placed on a shaker for 5 min at room temperature. Immediately after the 5 min incubation 5 μL of H2O2 solution is added to all wells to stop the reaction. The plate contents are mixed before the addition of detection reagents. […] For the detection of the product of the enzymatic reaction LTC4-Me, the Cisbio LTC4-HTRF kit is used as the assay is compatible with the detection of LTC4-Me. 5 μL of diluted LTC4-d2 conjugate (according to manufacturer's protocol) are added to all wells of the assay plate and the contents gently mixed and incubated for 5 minutes at room temperature. […] The percent inhibition for each point of an inhibition curve is calculated after data interpolation using the LTC4-Me standard curve, to convert the HTRF signal to the amount of LTC4-Me produced within the LTC4S catalyzed reaction on each plate. The data is analyzed using parametric curve fitting to determine IC50 values of LTC4S inhibitors.

[3] = human whole blood diluted 1:3, 4 h incubation, read-out: human whole blood HTRF IC50
[4] = 0.75 nM enzyme, 400 μM GSH, 5 μM LTA4-Me, 15 min pre-incubation, read-out: human LTC4S IC50 (enzymatic assay)
[5] = human whole blood HTRF IC50, human whole blood diluted 1:3, 4 h incubation

| SMILES | IC50 [1, 3] [nM] | IC50 [2, 4] [nM] | IC50 [1, 5] [nM] | IC50 [2] [nM] |
| --- | --- | --- | --- | --- |
| O=C1CCCC2(CCN(c3nnn(-c4ccccc4)n3)CC2)N1c1ccc(Cl)c(F)c1 [Example 22, 1-(4-chloro-3-fluorophenyl)-9-(2-phenyl-2H-tetrazol-5-yl)-1,9-diazaspiro[5.5]undecan-2-one] | 530 | 11 |  |  |
| O=C1CCCC2(CCN(c3ccn(-c4ccc(F)cc4)n3)CC2)N1c1ccc(Cl)c(F)c1 [Example 30, 1-(4-chloro-3-fluorophenyl)-9-(1-(4-fluorophenyl)-1H-pyrazol-3-yl)-1,9-diazaspiro[5.5]undecan-2-one] | 360 | 13 |  |  |
| O=C1CCCC2(CCN(c3ccnc(N4CC5(CC5)C4)n3)CC2)N1c1ccc(Cl)c(F)c1 [Example 35a, 9-(2-(5-azaspiro[2.3]hexan-5-yl)pyrimidin-4-yl)-1-(4-chloro-3-fluorophenyl)-1,9-diazaspiro[5.5]undecan-2-one] |  |  | 40 | 12 |
| O=C1CCCC2(CCN(c3nc(-c4ccc(F)cc4)n[nH]3)CC2)N1c1ccc(Cl)c(F)c1 [Example 26, 1-(4-chloro-3-fluorophenyl)-9-(3-(4-fluorophenyl)-1H-1,2,4-triazol-5-yl)-1,9-diazaspiro[5.5]undecan-2-one] | 110 | 16 |  |  |
| O=C1CCCC2(CCN(c3nsc(N4CCC(F)(F)C4)n3)CC2)N1c1ccc(Cl)c(F)c1 [Example 23, 1-(4-chloro-3-fluorophenyl)-9-(5-(3,3-difluoropyrrolidin-1-yl)-1,2,4-thiadiazol-3-yl)-1,9-diazaspiro[5.5]undecan-2-one] | 45 | 61 |  |  |
| O=C1CCCC2(CCN(c3cccc(-c4ccc(F)cc4)n3)CC2)N1c1ccc(Cl)cc1 [Example 32, 1-(4-chlorophenyl)-9-(6-(4-fluorophenyl)pyridin-2-yl)-1,9-diazaspiro[5.5]undecan-2-one] | 170 | 7 |  |  |
| O=C1CCCC2(CCN(c3cn(-c4ccc(F)cc4)nn3)CC2)N1c1ccc(Cl)c(F)c1 [Example 29, 1-(4-chloro-3-fluorophenyl)-9-(1-(4-fluorophenyl)-1H-1,2,3-triazol-4-yl)-1,9-diazaspiro[5.5]undecan-2-one] |  |  | 180 | 57 |
| O=C1CCCC2(CCN(c3ncc4ccc(C(F)(F)F)cc4n3)CC2)N1c1ccc(Cl)c(F)c1 [Example 4, 1-(4-chloro-3-fluorophenyl)-9-(7-(trifluoromethyl)quinazolin-2-yl)-1,9-diazaspiro[5.5]undecan-2-one] | 50 | 7 |  |  |
| O=C1CCCC2(CCN(c3nc4ccc(C(F)(F)F)cc4o3)CC2)N1c1ccc(Cl)c(F)c1 [Example 2, 1-(4-chloro-3-fluorophenyl)-9-(6-(trifluoromethyl)benzo[d]oxazol-2-yl)-1,9-diazaspiro[5.5]undecan-2-one] |  | 36 |  |  |
| O=C1CCCC2(CCN(c3nccc(N4CC5(CC5)C4)n3)CC2)N1c1ccc(Cl)c(F)c1 [Example 35b, 9-(4-(5-azaspiro[2.3]hexan-5-yl)pyrimidin-2-yl)-1-(4-chloro-3-fluorophenyl)-1,9-diazaspiro[5.5]undecan-2-one] |  |  |  | 3 |
| O=C1CCCC2(CCN(c3noc([C@H]4C[C@@H]4C(F)(F)F)n3)CC2)N1c1ccc(Cl)c(F)c1 [Example 6b, 1-(4-chloro-3-fluorophenyl)-9-(5-((1S,2S)-2-(trifluoromethyl)cyclopropyl)-1,2,4-oxadiazol-3-yl)-1,9-diazaspiro[5.5]undecan-2-one, or 1-(4-chloro-3-fluorophenyl)-9-(5-((1R,2R)-2-(trifluoromethyl)cyclopropyl)-1,2,4-oxadiazol-3-yl)-1,9-diazaspiro[5.5]undecan-2-one] |  | 44 |  |  |
| O=C1CCCC2(CCN(c3nc(N4CCCC4)nnc3O)CC2)N1c1ccc(Cl)c(F)c1 [Example 8, 1-(4-chloro-3-fluorophenyl)-9-(6-hydroxy-3-(pyrrolidin-1-yl)-1,2,4-triazin-5-yl)-1,9-diazaspiro[5.5]undecan-2-one] |  | 7 |  |  |
